These results are taken from US20260042754A1, “Substituted Bicyclic Heteroaryl Sulfonamide Derivatives for the Treatment of Cancer” (NODUS ONCOLOGY LIMITED, priority 2022, published 2026).

The target of assay [1] is Recombinant His-tagged human PARG protein (Homo sapiens (Human), UniProt Q86W56). Description: PARG enzymatic assay (TFMU-ADPr fluorescence). Format: biochemical. Conditions: 1 nM enzyme, 200 μM TFMU-ADPr, read after 30 minutes. Put shortly:
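Sf21-expressed His-tagged human PARG (1 nM) preincubated 15 min with compound (8-point series, 0.5% DMSO) in pH 7.4 phosphate/KCl/β-mercaptoethanol buffer, then 200 μM TFMU-ADPr added. Fluorescence (ex 380/em 535 nm) read after 30 min; IC50 from 4-parameter logistic fit, no-enzyme control as bottom.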

Assay [2] concerns the target human PARG (PARG-NanoLuc fusion in HEK293T cells) (Homo sapiens (Human), UniProt Q86W56). Description: PARG NanoBRET-based cellular target engagement assay. As to conditions: HEK293T cells transfected with PARG-NanoLuc, NanoBRET probe 0.89 μM, 2 hours; read-out: PARG TE IC50. Type of assay: cell-based. In short, it runs like this: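 HEK293T cells transiently expressing full-length human PARG with C-terminal NanoLuc, plated 24 h, then given compound (8-point series, 0.5% DMSO) for 15 min at room temperature. NanoBRET tracer added at 0.89 μM final, 2 h at 37° C.; BRET ratio (460/645 nm) fitted by 4-parameter logistic to give IC50.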
A general note: BRET reads energy transfer from a luciferase to a nearby fluorophore.

Assay [3] relates to RMUG-S. Kind of assay: Modified cell proliferation assay (CellTiter-Glo), RMUG-S, Examples 12-44. Format: cell-based. As to conditions: Examples 12-44: modified protocol, 384-well, 300 cells per well, 120 h; highest concentration tested 9000 nM; read-out: RMUG-S GI50 (high PARG dependency). Here is the method: The cell proliferation assay protocol was modified and used for RMUG-S for Examples 12-44, and subsequently used to test Examples 1-44 in the NCI-H1650 cell line.
NCI-H1650 (ATCC, #CRL-5883) or RMUG-S were seeded on day 1 at 300 cells per well in a 384-well plate (Greiner, #781080) that assure assay linearity and optimal signal intensity in 25 μL of RPMI1640 media (Pan Biotech, #P04-22100) containing 10% FCS (Capricorn, #FBS-11A; Lot. CP22-5141) and 1% Glutamine (Pan Biotech, #P04-80100). After incubation for 24 h in humidified chambers at 37° C./5% CO2, compounds/DMSO were dispensed at different concentrations using an Echo 520 (Beckman Coulter). Cells were further incubated for 120 h at 37° C. and 5% CO2. Cells treated with the compound vehicle DMSO were used as negative controls and cells treated with 10 μM Staurosporine (LC Laboratories, #S-9300) served as positive controls.
At day 6 the CellTiter Glo Reagent was prepared according to the instructions of the kit (Promega Inc.): Reagent was mixed 1:1 with cell culture medium. Thereon, mixture and assay plates were equilibrated at room temperature for 20 min. Equal volumes of the reagent-medium-mixture were added to the volume of culture medium present in each well. The plates were mixed at […] for 2 minutes on an orbital shaker (Timix5, Edmund Buehler GmbH). The microplates were then incubated at room temperature for 10 minutes for stabilization of the luminescent signal. Following incubation, the luminescence was recorded on a Victor X5 microplate reader (Perkin Elmer) using a 200 ms integration time. The data was then analyzed with Excel using the XLFIT Plugin (dose response Fit 205) for determination of the concentration necessary for half-maximal inhibition (i.e. the inflection point of the fitted curve).
As quality control the Z′-factor was calculated from 16 positive and negative control values. Only assay results showing a Z′-factor≥0.5 were used for further analysis.
(In general: Cellular ATP, detected with luciferase, serves as a proxy for viable cell number.)

The test system of assay [4] is NCI-H1650. Kind of assay: Modified cell proliferation assay (CellTiter-Glo), NCI-H1650. Format: cell-based. As to conditions: modified protocol, 384-well, 300 cells per well, 120 h, highest concentration tested 30000 nM, read-out: NCI-H1650 GI50 (high PARG dependency). In short, it runs like this: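 NCI-H1650 or RMUG-S cells seeded at 300 cells/well in RPMI1640 with 10% FCS, compounds added after 24 h, then 120 h at 37 °C/5% CO2. Viability read by CellTiter-Glo luminescence; IC50 from fitted dose-response inflection point. Z′≥0.5 required.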

The structures appear in SMILES notation. pIC50: −log10 of the molar value. Like-named read-outs stand apart in the source and are kept apart here. Some results are limits rather than exact numbers.

Sequence of Recombinant His-tagged human PARG protein (Q86W56 whole entry): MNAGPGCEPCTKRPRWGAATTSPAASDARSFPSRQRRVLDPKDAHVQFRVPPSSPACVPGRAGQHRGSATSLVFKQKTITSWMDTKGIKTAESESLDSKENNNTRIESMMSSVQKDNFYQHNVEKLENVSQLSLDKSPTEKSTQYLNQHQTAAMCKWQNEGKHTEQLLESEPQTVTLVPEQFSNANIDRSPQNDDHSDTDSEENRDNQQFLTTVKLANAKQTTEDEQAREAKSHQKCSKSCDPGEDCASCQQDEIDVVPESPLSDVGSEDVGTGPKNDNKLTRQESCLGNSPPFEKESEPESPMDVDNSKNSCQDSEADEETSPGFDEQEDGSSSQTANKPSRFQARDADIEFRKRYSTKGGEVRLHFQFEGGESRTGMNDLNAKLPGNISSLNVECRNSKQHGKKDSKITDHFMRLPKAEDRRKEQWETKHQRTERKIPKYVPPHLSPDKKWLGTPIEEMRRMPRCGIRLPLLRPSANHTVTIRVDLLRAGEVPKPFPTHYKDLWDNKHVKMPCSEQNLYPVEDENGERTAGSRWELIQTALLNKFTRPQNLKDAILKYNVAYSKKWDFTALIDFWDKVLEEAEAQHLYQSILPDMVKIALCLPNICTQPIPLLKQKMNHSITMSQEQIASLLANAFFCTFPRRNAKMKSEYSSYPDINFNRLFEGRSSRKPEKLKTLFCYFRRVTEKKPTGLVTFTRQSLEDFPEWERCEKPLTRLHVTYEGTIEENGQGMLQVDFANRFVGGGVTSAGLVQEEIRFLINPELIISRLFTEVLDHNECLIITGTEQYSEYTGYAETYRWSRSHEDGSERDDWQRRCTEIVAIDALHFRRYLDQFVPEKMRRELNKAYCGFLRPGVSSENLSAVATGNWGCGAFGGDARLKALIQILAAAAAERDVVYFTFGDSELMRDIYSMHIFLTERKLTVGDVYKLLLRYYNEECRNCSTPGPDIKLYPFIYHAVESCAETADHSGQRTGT
Sequence of human PARG (PARG-NanoLuc fusion in HEK293T cells) (Q86W56 whole entry, the tested form may be a part): as the sequence (Q86W56 whole entry) above

For `CO/N=c1\[nH]c2c(C3CCN(C(C)=O)[C@H](C)C3)cc(S(=O)(=O)NC3(C)CC3)cc2c(=O)n1Cc1cnn(C)c1` (stereo partly drawn) [Example 26, (2E)-2-methoxyimino-N-(1-methylcyclopropyl)-3-[(1-methylpyrazol-4-yl)methyl]-4-oxo-8-[(2R)-1-acetyl-2-methyl-4-piperidyl]-1H-quinazoline-6-sulfonamide], the pIC50 in assay [1] and in assay [2] was over 7.52 each time. In addition, the GI50 in assay [3] lay in the range of 2000 to 9000 nM; in assay [4] (Homo sapiens, NCI-H1650), 500 to 2000 nM.
In the case of `CO/N=c1\[nH]c2c(C3CCN(C(=O)C4(C)CC4)[C@H](C)C3)cc(S(=O)(=O)NC3(C)CC3)cc2c(=O)n1Cc1cnn(C)c1` (stereo partly drawn) [Example 27, (2E)-2-methoxyimino-N-(1-methylcyclopropyl)-3-[(1-methylpyrazol-4-yl)methyl]-4-oxo-8-[(2R)-2-methyl-1-(1-methylcyclopropanecarbonyl)-4-piperidyl]-1H-quinazoline-6-sulfonamide], the pIC50 in assay [1] and in assay [2] was over 7.52 throughout. Besides, the GI50 was under 500 nM in assay [3] and under 500 nM in assay [4] (Homo sapiens, NCI-H1650).
Take `CO/N=c1\[nH]c2c(C3=C[C@@H](C)N(C)CC3)cc(S(=O)(=O)NC3(C)CC3)cc2c(=O)n1Cc1cnn(C)c1` [Example 28, (2E)-2-methoxyimino-N-(1-methylcyclopropyl)-3-[(1-methylpyrazol-4-yl)methyl]-4-oxo-8-[(2R)-1,2-dimethyl-3,6-dihydro-2H-pyridin-4-yl]-1H-quinazoline-6-sulfonamide/(2E)-2-methoxyimino-N-(1-methylcyclopropyl)-3-[(1-methylpyrazol-4-yl)methyl]-4-oxo-8-[(6R)-1,6-dimethyl-3,6-dihydro-2H-pyridin-4-yl]-1H-quinazoline-6-sulfonamide]: the pIC50 in assay [1] and in assay [2] was over 7.52 each time. Besides, the GI50 in assay [3] is 500 to 2000 nM; in assay [4], under 500 nM.
In the case of `CO/N=c1\[nH]c2c(C3=C[C@@H](C)N(C(C)=O)CC3)cc(S(=O)(=O)NC3(C)CC3)cc2c(=O)n1Cc1cnn(C)c1` [Example 29, (2E)-2-methoxyimino-N-(1-methylcyclopropyl)-3-[(1-methylpyrazol-4-yl)methyl]-4-oxo-8-[(2R)-1-acetyl-2-methyl-3,6-dihydro-2H-pyridin-4-yl]-1H-quinazoline-6-sulfonamide/(2E)-2-methoxyimino-N-(1-methylcyclopropyl)-3-[(1-methylpyrazol-4-yl)methyl]-4-oxo-8-[(6R)-1-acetyl-6-methyl-3,6-dihydro-2H-pyridin-4-yl]-1H-quinazoline-6-sulfonamide], the pIC50 in assay [1] and in assay [2] was over 7.52 in each case. Moreover, the GI50 in assay [3] and in assay [4] was 500 to 2000 nM each time.
In the case of `CO/N=c1\[nH]c2c(C3=C[C@@H](C)N(C(=O)C4(C)CC4)CC3)cc(S(=O)(=O)NC3(C)CC3)cc2c(=O)n1Cc1cnn(C)c1` [Example 30, (2E)-2-methoxyimino-N-(1-methylcyclopropyl)-3-[(1-methylpyrazol-4-yl)methyl]-4-oxo-8-[(2R)-2-methyl-1-(1-methylcyclopropanecarbonyl)-3,6-dihydro-2H-pyridin-4-yl]-1H-quinazoline-6-sulfonamide/(2E)-2-methoxyimino-N-(1-methylcyclopropyl)-3-[(1-methylpyrazol-4-yl)methyl]-4-oxo-8-[(6R)-6-methyl-1-(1-methylcyclopropanecarbonyl)-3,6-dihydro-2H-pyridin-4-yl]-1H-quinazoline-6-sulfonamide], the pIC50 in assay [1] and in assay [2] was over 7.52 each time. For the same molecule, the concentration for 50% growth inhibition (GI50) in assay [3] and in assay [4] was under 500 nM each time.

The term pIC50 denotes the negative decadic logarithm of the IC50, by convention in mol/L. In general, GI50 refers to the concentration at which growth is held to half of that of the control.
